Assay results published in ChEMBL document CHEMBL1142888, “Synthesis, antimicrobial, and anti-inflammatory activities of novel 2-(1-adamantyl)-5-substituted-1,3,4-oxadiazoles and 2-(1-adamantylamino)-5-substituted-1,3,4-thiadiazoles” (2007).
≈ marks a conversion by molar mass, not a printed value.

Tests used:
[1] = tested on: Staphylococcus aureus; assay: Antimicrobial activity against Staphylococcus aureus IFO 3060 at 100 ug/disc after 24 hrs; assay type: functional; details: IFO 3060, 24 h, read-out: IZ
[2] = tested on: Bacillus subtilis; assay: Antimicrobial activity against Bacillus subtilis IFO 3007 at 100 ug/disc after 24 hrs; assay type: functional; details: IFO 3007, 24 h, read-out: IZ
[3] = tested on: Escherichia coli; assay: Antimicrobial activity against Escherichia coli IFO 3301 at 100 ug/disc after 24 hrs; assay type: functional; details: IFO 3301, 24 h, read-out: IZ
[4] = tested on: Pseudomonas aeruginosa; assay: Antimicrobial activity against Pseudomonas aeruginosa IFO 3448 at 100 ug/disc; assay type: functional; details: read-out: IZ
[5] = tested on: Staphylococcus aureus; assay: Antimicrobial activity against Staphylococcus aureus IFO 3060 after 24 hrs; assay type: functional; details: IFO 3060, 24 h
[6] = tested on: Bacillus subtilis; assay: Antimicrobial activity against Bacillus subtilis IFO 3007 after 24 hrs; assay type: functional; details: IFO 3007, 24 h
[7] = tested on: Pseudomonas aeruginosa; assay: microbe, parasite or virus in culture; details: IFO 3448
Description: Antimicrobial activity against Pseudomonas aeruginosa IFO 3448 at 200 ug/disc

CC1(C)S[C@@H]2[C@H](NC(=O)[C@H](N)c3ccccc3)C(=O)N2[C@H]1C(=O)O [AMPICILLIN]
zone of inhibition at 100 µg/disc [1]: 19 mm
zone of inhibition at 100 µg/disc [2]: 18 mm
zone of inhibition at 100 µg/disc [3]: 16 mm
zone of inhibition at 100 µg/disc [4]: 15 mm
MIC [5]: 1 µg/mL (≈ 2.86 µM)
MIC [6]: 0.5 µg/mL (≈ 1.43 µM)
MIC [7]: 2 µg/mL (≈ 5.72 µM)
